From patent publication US20050022267A1, “Methods for Agrobacterium-mediated transformation of dandelion” (priority 2003, published 2005)

Test system: dandelion leaf explants
Assay: Effect of phyto-hormones on dandelion regeneration: adventitious shoot formation of leaf explants on seedling media
Assay type: cell-based
Conditions: for number of regenerated shoots per explant / percentage of leaf explants displaying adventitious shoot formation: four weeks
Method: Dandelion seeds are surface-sterilized in approximately 70% (volume/volume, v/v) ethanol for 30 sec in the bottle. The ethanol is removed and the seeds are soaked in approximately 1% (v/v) bleach with gentle agitation for about 15 minutes. The bleach is poured off and the […] are rinsed thoroughly about 3-4 times with sterilized distilled water. Seeds are germinated and in vitro cultured in the sterile bottles containing seedling medium (Table 1). Over one month-old seedlings are used as stock plants for leaf and root explants. The leaves and roots of stock plants are placed in a petri plate with droplets of sterile water. Explants of leaves (ca. 0.5 cm in diameter) and of roots (ca. 0.5 cm in length) were excised from dandelion plants. Approximately 15 to 20 explants per plate are positioned with the adaxial surface down onto pre-incubation medium (Table 2). The plates are incubated under mixed white and red lights for about 6 days at about 22° C. […] Parentheses indicate the number of regenerated shoots per explant.

[1] = 6-benzyladenine 0.25 mg/L, α-naphthalene acetic acid 0 mg/L
[2] = 6-benzyladenine 0.25 mg/L, α-naphthalene acetic acid 0.1 mg/L
[3] = 6-benzyladenine 0.25 mg/L, α-naphthalene acetic acid 0.5 mg/L
[4] = 6-benzyladenine 0.25 mg/L, α-naphthalene acetic acid 1.0 mg/L
[5] = 6-benzyladenine 0.25 mg/L, α-naphthalene acetic acid 2.0 mg/L
[6] = 6-benzyladenine 0.5 mg/L, α-naphthalene acetic acid 0 mg/L
[7] = 6-benzyladenine 0.5 mg/L, α-naphthalene acetic acid 0.1 mg/L
[8] = 6-benzyladenine 0.5 mg/L, α-naphthalene acetic acid 0.5 mg/L
[9] = 6-benzyladenine 0.5 mg/L, α-naphthalene acetic acid 1.0 mg/L
[10] = 6-benzyladenine 0.5 mg/L, α-naphthalene acetic acid 2.0 mg/L
[11] = 6-benzyladenine 1.0 mg/L, α-naphthalene acetic acid 0 mg/L
[12] = 6-benzyladenine 1.0 mg/L, α-naphthalene acetic acid 0.1 mg/L
[13] = 6-benzyladenine 1.0 mg/L, α-naphthalene acetic acid 0.5 mg/L
[14] = 6-benzyladenine 1.0 mg/L, α-naphthalene acetic acid 1.0 mg/L
[15] = 6-benzyladenine 1.0 mg/L, α-naphthalene acetic acid 2.0 mg/L
[16] = 6-benzyladenine 2.0 mg/L, α-naphthalene acetic acid 0 mg/L
[17] = 6-benzyladenine 2.0 mg/L, α-naphthalene acetic acid 0.1 mg/L
[18] = 6-benzyladenine 2.0 mg/L, α-naphthalene acetic acid 0.5 mg/L
[19] = 6-benzyladenine 2.0 mg/L, α-naphthalene acetic acid 1.0 mg/L
[20] = 6-benzyladenine 2.0 mg/L, α-naphthalene acetic acid 2.0 mg/L
[21] = kinetin 0.5 mg/L, α-naphthalene acetic acid 0 mg/L
[22] = kinetin 0.5 mg/L, α-naphthalene acetic acid 0.1 mg/L
[23] = kinetin 0.5 mg/L, α-naphthalene acetic acid 0.5 mg/L
[24] = kinetin 0.5 mg/L, α-naphthalene acetic acid 1.0 mg/L
[25] = kinetin 0.5 mg/L, α-naphthalene acetic acid 2.0 mg/L
[26] = kinetin 1.0 mg/L, α-naphthalene acetic acid 0 mg/L
[27] = kinetin 1.0 mg/L, α-naphthalene acetic acid 0.1 mg/L
[28] = kinetin 1.0 mg/L, α-naphthalene acetic acid 0.5 mg/L
[29] = kinetin 1.0 mg/L, α-naphthalene acetic acid 1.0 mg/L
[30] = kinetin 1.0 mg/L, α-naphthalene acetic acid 2.0 mg/L
[31] = kinetin 2.0 mg/L, α-naphthalene acetic acid 0 mg/L
[32] = kinetin 2.0 mg/L, α-naphthalene acetic acid 0.1 mg/L
[33] = kinetin 2.0 mg/L, α-naphthalene acetic acid 0.5 mg/L
[34] = kinetin 2.0 mg/L, α-naphthalene acetic acid 1.0 mg/L
[35] = kinetin 2.0 mg/L, α-naphthalene acetic acid 2.0 mg/L
[36] = kinetin 3.0 mg/L, α-naphthalene acetic acid 0 mg/L
[37] = kinetin 3.0 mg/L, α-naphthalene acetic acid 0.1 mg/L
[38] = kinetin 3.0 mg/L, α-naphthalene acetic acid 0.5 mg/L
[39] = kinetin 3.0 mg/L, α-naphthalene acetic acid 1.0 mg/L
[40] = kinetin 3.0 mg/L, α-naphthalene acetic acid 2.0 mg/L

## 6-benzyladenine
1 or 2 mg/l 6-benzyladenine and 0.1 mg/l α-naphthalene acetic acid
  suitability for shoot regeneration of dandelion: most suitable for shoot regeneration
[1]
  number of regenerated shoots per explant: (21.2) shoots per explant
  percentage of leaf explants displaying adventitious shoot formation: 60.0%
[2]
  number of regenerated shoots per explant: (16.3) shoots per explant
  percentage of leaf explants displaying adventitious shoot formation: 63.0%
[3]
  number of regenerated shoots per explant: (12.0) shoots per explant
  percentage of leaf explants displaying adventitious shoot formation: 78.0%
[4]
  number of regenerated shoots per explant: (24.5) shoots per explant
  percentage of leaf explants displaying adventitious shoot formation: 97.0%
[5]
  number of regenerated shoots per explant: (3.6) shoots per explant
  percentage of leaf explants displaying adventitious shoot formation: 90.0%
[6]
  number of regenerated shoots per explant: (17.4) shoots per explant
  percentage of leaf explants displaying adventitious shoot formation: 75.0%
[7]
  number of regenerated shoots per explant: (23.8) shoots per explant
  percentage of leaf explants displaying adventitious shoot formation: 99.9%
[8]
  number of regenerated shoots per explant: (23.7) shoots per explant
  percentage of leaf explants displaying adventitious shoot formation: 99.9%
[9]
  number of regenerated shoots per explant: (21.7) shoots per explant
  percentage of leaf explants displaying adventitious shoot formation: 88.0%
[10]
  number of regenerated shoots per explant: (3.2) shoots per explant
  percentage of leaf explants displaying adventitious shoot formation: 40.0%
[11]
  number of regenerated shoots per explant: (17.4) shoots per explant
  percentage of leaf explants displaying adventitious shoot formation: 85.0%
[12]
  number of regenerated shoots per explant: (25.1) shoots per explant
  percentage of leaf explants displaying adventitious shoot formation: 99.9%
[13]
  number of regenerated shoots per explant: (20.4) shoots per explant
  percentage of leaf explants displaying adventitious shoot formation: 99.9%
[14]
  number of regenerated shoots per explant: (13.1) shoots per explant
  percentage of leaf explants displaying adventitious shoot formation: 83.0%
[15]
  number of regenerated shoots per explant: (5.9) shoots per explant
  percentage of leaf explants displaying adventitious shoot formation: 99.9%
[16]
  number of regenerated shoots per explant: (16.0) shoots per explant
  percentage of leaf explants displaying adventitious shoot formation: 99.9%
[17]
  number of regenerated shoots per explant: (17.4) shoots per explant
  percentage of leaf explants displaying adventitious shoot formation: 99.9%
[18]
  number of regenerated shoots per explant: (20.7) shoots per explant
  percentage of leaf explants displaying adventitious shoot formation: 99.9%
[19]
  number of regenerated shoots per explant: (8.5) shoots per explant
  percentage of leaf explants displaying adventitious shoot formation: 99.9%
[20]
  number of regenerated shoots per explant: (5.4) shoots per explant
  percentage of leaf explants displaying adventitious shoot formation: 99.9%

## c1coc(CNc2ncnc3[nH]cnc23)c1 [Kinetin, kinetin]
0.05 mg/l α-naphthalene acetic acid and 1.0 mg/l kinetin or 0.1 mg/l α-naphthalene acetic acid and 2.0 mg/l kinetin
  suitability for dandelion shoot regeneration: also suitable for dandelion shoot regeneration
[21]
  number of regenerated shoots per explant: (24.8) shoots per explant
  percentage of leaf explants displaying adventitious shoot formation: 99.9%
[22]
  number of regenerated shoots per explant: (19.8) shoots per explant
  percentage of leaf explants displaying adventitious shoot formation: 96.7%
[23]
  number of regenerated shoots per explant: (16.9) shoots per explant
  percentage of leaf explants displaying adventitious shoot formation: 99.9%
[24]
  number of regenerated shoots per explant: (8.1) shoots per explant
  percentage of leaf explants displaying adventitious shoot formation: 99.9%
[25]
  number of regenerated shoots per explant: (5.8) shoots per explant
  percentage of leaf explants displaying adventitious shoot formation: 99.9%
[26]
  number of regenerated shoots per explant: (22.7) shoots per explant
  percentage of leaf explants displaying adventitious shoot formation: 99.9%
[27]
  number of regenerated shoots per explant: (23.4) shoots per explant
  percentage of leaf explants displaying adventitious shoot formation: 99.9%
[28]
  number of regenerated shoots per explant: (16.8) shoots per explant
  percentage of leaf explants displaying adventitious shoot formation: 99.9%
[29]
  number of regenerated shoots per explant: (6.7) shoots per explant
  percentage of leaf explants displaying adventitious shoot formation: 99.9%
[30]
  number of regenerated shoots per explant: (9.8) shoots per explant
  percentage of leaf explants displaying adventitious shoot formation: 99.9%
[31]
  number of regenerated shoots per explant: (21.9) shoots per explant
  percentage of leaf explants displaying adventitious shoot formation: 95.0%
[32]
  number of regenerated shoots per explant: (23.6) shoots per explant
  percentage of leaf explants displaying adventitious shoot formation: 99.9%
[33]
  number of regenerated shoots per explant: (20.3) shoots per explant
  percentage of leaf explants displaying adventitious shoot formation: 99.9%
[34]
  number of regenerated shoots per explant: (13.4) shoots per explant
  percentage of leaf explants displaying adventitious shoot formation: 95.5%
[35]
  number of regenerated shoots per explant: (7.3) shoots per explant
  percentage of leaf explants displaying adventitious shoot formation: 96.2%
[36]
  number of regenerated shoots per explant: (14.7) shoots per explant
  percentage of leaf explants displaying adventitious shoot formation: 99.9%
[37]
  number of regenerated shoots per explant: (19.3) shoots per explant
  percentage of leaf explants displaying adventitious shoot formation: 99.9%
[38]
  number of regenerated shoots per explant: (25.5) shoots per explant
  percentage of leaf explants displaying adventitious shoot formation: 99.9%
[39]
  number of regenerated shoots per explant: (8.9) shoots per explant
  percentage of leaf explants displaying adventitious shoot formation: 99.9%
[40]
  number of regenerated shoots per explant: (8.1) shoots per explant
  percentage of leaf explants displaying adventitious shoot formation: 99.9%
